Measured values: PMC5725799, “Comparative binding properties of the tau PET tracers THK5117, THK5351, PBB3, and T807 in postmortem Alzheimer brains” (Alzheimer's Research & Therapy, 2017)

Experiments:
[1] = molecular target: tau (Homo sapiens, UniProt P10636); assay: Competition binding assay with ^3H-THK5351 in postmortem hippocampus brain homogenates; conditions: vs ^3H-THK5351 1.5 nM, AD hippocampus homogenate; read-out: Ki2 (high-affinity site)
Method: Postmortem brain tissues from three patients with AD and three healthy control subjects were used for the in vitro binding assays. All the brain tissue, which came from the Netherlands Brain Bank, had been homogenized in PBS containing a protease/phosphatase inhibitor (see Table 1).
After 2-h incubation at room temperature, the binding assay was terminated by filtration through glass fiber filters presoaked for at least 3 h in 0.3% polyethylenimine. To do so, the filters were rinsed and filtered three times using cold binding buffer, and then the radiation on the filter was quantified using a Beckman Coulter scintillation counter. The data for the regional binding distribution studies were analyzed using Prism version 7.0 software for Mac (GraphPad Software Inc., La Jolla, CA, USA), and two-way analysis of variance with multiple comparisons was performed.

[2] = test system: tau; assay: ^3H-THK5351 competition autoradiography with unlabeled THK5351, T807 and deprenyl; type: binding, human; conditions: cortical areas
Method: Six adjacent sections from AD1 (see Table 1) were used for competition autoradiography of unlabeled THK5351, T807, and deprenyl. After reaching room temperature, the frozen sections were preincubated for 10 minutes with PBS (pH 7.4) and then incubated for 1 h at room temperature with ^3H-THK5351 (1.5 nM) in addition to 10 μM unlabeled THK5351; 10 μM unlabeled deprenyl; 10 μM unlabeled T807; 10 μM unlabeled THK5351 and 10 μM unlabeled deprenyl; 10 μM unlabeled T807 and 10 μM unlabeled deprenyl. The sections were rinsed three times in cold buffer for 5 minutes, followed by a quick dip in cold distilled water. Nonspecific binding was determined using 10 μM unlabeled THK5351 or 10 μM unlabeled THK5117. […]
(§1) For all the autoradiography studies, the regions of interest were drawn manually on the autoradiogram using multigauge software and were used for the semiquantitative analyses. Photostimulated luminescence per square millimeter (PSL/mm^2) was transformed to picomoles per cubic millimeter using a transformation factor that took into account the resolution of the image, the pixel value for the concentration of ligand, and the thickness of the sections: (PSL/mm^2 value)/([pixel value per pmol] × [(resolution/1000)^2] × [cryosection thickness]/1000).

[3] = test system: tau; assay: ^18F-T807 autoradiography and competition on large frozen AD brain sections; type: binding, human; parameters: Total Binding / NSP Binding: unit not given here; conditions: vs Unlabelled T807
Method: Adjacent sections were used for autoradiography with ^11C-THK5351, ^11C-PBB3, and ^18F-T807. The frozen sections were allowed to reach room temperature, incubated for 30 minutes at room temperature with ^11C-THK5351 (0.4–0.56 nM; specific activity 356–532 GBq/μmol) or ^11C-PBB3 (0.25–0.34 nM; specific activity 442–794 GBq/μmol) or for 55 minutes at room temperature with ^18F-T807 (0.04 nM; specific activity 281 GBq/μmol). We used 10 μM unlabeled THK5351, 10 μM unlabeled PBB3, and 10 μM unlabeled T807 to determine the extent of nonspecific binding for each tracer. The sections were rinsed three times for 5 minutes each with cold binding buffer, followed by a quick dip in cold distilled water. The sections were dried and exposed for 1 h (for ^11C-THK5351 and ^11C-PBB3) or for 3 h (^18 F-T807) on a phosphor imaging plate and then read using the BAS-2500 phosphor imager.
as §1

Sequence of tau (Homo sapiens, UniProt P10636) (P10636 623-695 limits assumed): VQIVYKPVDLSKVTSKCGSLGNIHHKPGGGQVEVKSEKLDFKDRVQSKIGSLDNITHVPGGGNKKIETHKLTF

CNc1ccc(-c2ccc3cc(OC[C@H](O)CF)ccc3n2)cn1 [THK5351]
Ki [1]: 16 nM | ^3H-THK5351 binding displaced [2]: 70–80%

[18F]c1ccc(-c2ccc3c(c2)[nH]c2ccncc23)cn1 [^18F-T807, 7-(6-[^18F]fluoropyridin-3yl)-5H-pyrido(4,3-b)indole]
% of specific binding ([3]; AD1, Basal ganglia): 24% | NSP Binding ([3]; AD1, Basal ganglia): 1895 | Specific Binding ([3]; AD1, Basal ganglia): 599 | Total Binding ([3]; AD1, Basal ganglia): 2495 | % of specific binding ([3]; AD1, Frontal cortex): 41% | NSP Binding ([3]; AD1, Frontal cortex): 2028 | Specific Binding ([3]; AD1, Frontal cortex): 1388 | Total Binding ([3]; AD1, Frontal cortex): 3416 | % of specific binding ([3]; AD1, Insula): 33% | NSP Binding ([3]; AD1, Insula): 1851 | Specific Binding ([3]; AD1, Insula): 893 | Total Binding ([3]; AD1, Insula): 2744 | % of specific binding ([3]; AD1, Temporal cortex): 28% | NSP Binding ([3]; AD1, Temporal cortex): 2018 | Specific Binding ([3]; AD1, Temporal cortex): 784 | Total Binding ([3]; AD1, Temporal cortex): 2802 | % of specific binding ([3]; AD2, Basal ganglia): 25% | NSP Binding ([3]; AD2, Basal ganglia): 1713 | Specific Binding ([3]; AD2, Basal ganglia): 567 | Total Binding ([3]; AD2, Basal ganglia): 2280 | % of specific binding ([3]; AD2, Frontal cortex): 24% | NSP Binding ([3]; AD2, Frontal cortex): 1901 | Specific Binding ([3]; AD2, Frontal cortex): 586 | Total Binding ([3]; AD2, Frontal cortex): 2488 | Total Binding ([3]; AD2, Insula): 2469 | % of specific binding ([3]; AD2, Temporal cortex): 46% | NSP Binding ([3]; AD2, Temporal cortex): 1801 | Specific Binding ([3]; AD2, Temporal cortex): 1526 | Total Binding ([3]; AD2, Temporal cortex): 3327 | % of specific binding ([3]; AD3, Basal ganglia): 31% | NSP Binding ([3]; AD3, Basal ganglia): 1639 | Specific Binding ([3]; AD3, Basal ganglia): 733 | Total Binding ([3]; AD3, Basal ganglia): 2372 | % of specific binding ([3]; AD3, Frontal cortex): 40% | NSP Binding ([3]; AD3, Frontal cortex): 1916 | Specific Binding ([3]; AD3, Frontal cortex): 1296 | Total Binding ([3]; AD3, Frontal cortex): 3212 | % of specific binding ([3]; AD3, Insula): 22% | NSP Binding ([3]; AD3, Insula): 1836 | Specific Binding ([3]; AD3, Insula): 509 | Total Binding ([3]; AD3, Insula): 2346 | % of specific binding ([3]; AD3, Temporal cortex): 16% | NSP Binding ([3]; AD3, Temporal cortex): 1975 | Specific Binding ([3]; AD3, Temporal cortex): 374 | Total Binding ([3]; AD3, Temporal cortex): 2349
